Where two headings read alike, the source gives them in different places.
Assays:
erbB2 = erbB2 (Homo sapiens, UniProt P04626); experiment: Isolated enzyme inhibition (Invitrogen Z′-LYTE kinase assay); assay type: biochemical; details: 10 μM ATP, duplicate
erbB4 = erbB4 (Homo sapiens, UniProt Q15303); experiment: as above; assay type: biochemical; details: 10 μM ATP, duplicate
erbB1 [1] = target: T1, erbB1 (Homo sapiens, UniProt P00533); experiment: as above; assay type: biochemical; details: 10 μM ATP, duplicate
T1 sequence (P00533 25-1210): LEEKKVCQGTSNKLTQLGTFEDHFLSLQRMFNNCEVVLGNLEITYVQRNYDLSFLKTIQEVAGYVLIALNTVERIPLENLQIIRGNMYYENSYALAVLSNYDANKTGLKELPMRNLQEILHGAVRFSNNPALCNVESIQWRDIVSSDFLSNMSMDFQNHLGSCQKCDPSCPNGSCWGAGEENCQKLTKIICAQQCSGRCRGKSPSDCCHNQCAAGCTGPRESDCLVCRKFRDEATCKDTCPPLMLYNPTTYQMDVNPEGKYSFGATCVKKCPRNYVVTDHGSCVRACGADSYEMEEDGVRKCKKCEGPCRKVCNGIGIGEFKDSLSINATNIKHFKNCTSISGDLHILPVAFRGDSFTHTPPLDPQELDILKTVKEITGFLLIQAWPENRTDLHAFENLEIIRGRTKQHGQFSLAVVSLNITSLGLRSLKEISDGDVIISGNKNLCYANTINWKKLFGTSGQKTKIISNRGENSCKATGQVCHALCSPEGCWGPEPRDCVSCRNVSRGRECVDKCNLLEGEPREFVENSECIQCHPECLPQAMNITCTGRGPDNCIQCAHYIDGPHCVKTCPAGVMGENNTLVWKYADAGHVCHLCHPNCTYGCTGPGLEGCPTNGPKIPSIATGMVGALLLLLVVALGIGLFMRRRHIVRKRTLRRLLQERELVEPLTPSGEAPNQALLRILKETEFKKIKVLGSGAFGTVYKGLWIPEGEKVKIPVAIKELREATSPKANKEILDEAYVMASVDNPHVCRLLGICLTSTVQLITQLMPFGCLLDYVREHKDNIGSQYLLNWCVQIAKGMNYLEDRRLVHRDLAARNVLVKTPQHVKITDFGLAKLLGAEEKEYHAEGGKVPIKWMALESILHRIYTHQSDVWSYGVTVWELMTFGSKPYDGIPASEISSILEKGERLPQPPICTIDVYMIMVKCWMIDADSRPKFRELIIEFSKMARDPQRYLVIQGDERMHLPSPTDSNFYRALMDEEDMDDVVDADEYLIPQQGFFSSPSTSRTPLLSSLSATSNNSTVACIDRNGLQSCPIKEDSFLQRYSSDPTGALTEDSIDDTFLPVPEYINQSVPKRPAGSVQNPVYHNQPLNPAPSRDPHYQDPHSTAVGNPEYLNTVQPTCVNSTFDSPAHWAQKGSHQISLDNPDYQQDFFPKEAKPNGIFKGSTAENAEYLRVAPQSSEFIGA

erbB1 [2] = target: T1, erbB1; experiment: Cellular erbB1 inhibition: irreversibility wash-out assay in A431 cells; details: 1 μM, 1 hour exposure, then EGF stimulation
A431 cells = experiment: Oxic and hypoxic cellular metabolism of prodrug 20; assay type: in vitro ADME, Human; details: 10 uM prodrug
Procedure: (§1) A431 and SKOV3 cells were grown in a 175 flask and seeded at 40K, a density which gave an 80-90% confluent cell layer after 7 days growth. Cells were washed with PBS, harvested with 0.05% trypsin/EDTA, centrifuged at 1000 rpm for 5 mins at room temperature and re-suspended in a 1 mL of cell culture medium (α-MEM containing 10% FCS, 10 mM D-Glucose and 0.2 mM 2′-deoxycytidine). Cell numbers were determined with the Coulter counter and the appropriate number of cells was transferred to a new tube. 5×10^5 cells per well were plated into wells of a 24-well plate in a total volume of 350 μL/well (i.e. 14.3×10^5 cells/mL). Cells were incubated at 37° C. for two hours to attach to the wells and for anoxic samples to equilibrate. […] The cells were incubated for 1, 2 or 3 hours at 37° C. At the appropriate time the 24 well plate was removed from the incubator/anoxic chamber and placed on ice. The contents of each well was transferred to the microcentrifuge tube kept on ice. 800 μL of acetonitrile (spiked with D6 internal standards of compounds 11 and 20, each 0.5 uM) was added to each of the drug treated wells to allow efficient extraction from the cell monolayer. Then the entire contents (1200 uL=400+800 uL) was vortex mixed and transferred to −80° C. for storage until they were run on the LC-MS/MS system. A similar procedure was followed for the control samples. […]

SKOV3 cells = experiment: Oxic and hypoxic cellular metabolism of prodrug 20; assay type: in vitro ADME, Human; details: 10 uM prodrug
Procedure: as §1

SKBR3 cells = experiment: Cellular growth inhibition (sulforhodamine B); assay type: cell-based, Human; details: Table 3
[3] = Hypoxia-selective reduction of prodrug 20 in cell free media; assay type: in vitro ADME; details: cell free media containing 5% fetal calf serum, hypoxic
[4] = Plasma and A431 tumour pharmacokinetics of compounds 11 and 20
Procedure: A small piece (˜100 mg) of tissue was placed in biopulveriser well (previously cooled in liquid nitrogen) and reduced to fine powder with a 2-3 strong blows to the stainless steel pestle. The frozen powder was collected in pre-weighed microcentrifuge tube (kept on dry ice). […] The microcentrifuge tubes were spun at 13,000 rpm for 10 min to precipitate the cell debris and proteins. […] The analytes were eluted using a gradient of 0.01% formic acid in acetonitrile (80%)-water (20%) mixture and 0.01% formic acid in water (100%) on Zorbax SB 018, rapid resolution HT 3.0×50 mm, 1.8 micron (Agilent) HPLC column with a flow rate of 0.6 ml/min.

in vivo = details: female, NIH-III nude, mouse, ip, pH 4
H1975 cells = experiment: Cellular growth inhibition (sulforhodamine B); assay type: cell-based, Human; details: Table 9; for IC50: Homo sapiens, NCI-H1975
Procedure: Human A431, BT474, SKBR3, SKOV3, SW620, H1975 and HT29 carcinoma cells in log phase exponential growth in alpha minimal essential media (αMEM) containing 5% fetal bovine serum (FBS), were harvested by trypsinisation (1× trypsin/EDTA, Gibco Brl), counted, and seeded into 96 well plates (Nunc) at cell densities ranging from 800-1500 cells/well. Half of the cell samples were seeded into plates that were pre-equilibrated and held in an anoxic environment (90% N2, 5% H2, 5% CO2, 37° Q Anaerobic chamber, Coy Laboratory Products). […] At the end of this period the anoxic plates were recovered from the anaerobic camber and held under normoxia in a standard CO2 incubator (37° C.) for 20 hours. All plates were washed free of compound and cells were allowed to proliferate for a further 4 days in αMEM containing 5% FBS+antibiotics. Cells were fixed in trichloroacteic acid (30 min), washed and stained with sulforhodamine B (SRB, 60 min) prior to washing in acidified water. SRB was solubilised and absorption read at 450 nm to calculate cell densities. Inhibition of proliferation was calculated relative to untreated control wells.
Human A431, H1975 and SKOV3 carcinoma cells in log phase exponential growth in alpha minimal essential media (αMEM) containing 5% fetal bovine serum (FBS), were harvested by trypsinisation (1× trypsin/EDTA, Gibco Brl), counted, and seeded into 96 well plates (Nunc) at cell densities ranging from 800-1500 cells/well. Half of the cell samples were seeded into plates that were pre-equilibrated and held in an anoxic environment (90% N2, 5% H2, 5% CO2, 37° C.; Anaerobic chamber, Coy Laboratory Products). […] At the end of this period the anoxic plates were recovered from the anaerobic camber and held under normoxia in a standard CO2 incubator (37° C.) for 20 hours. All plates were washed free of compound and cells were allowed to proliferate for a further 4 days in αMEM containing 5% FBS+antibiotics. Cells were fixed in trichloroacteic acid (30 min), washed and stained with sulforhodamine B (SRB, 60 min) prior to washing in acidified water. SRB was solubilised and absorption read at 450 nm to calculate cell densities. Inhibition of proliferation was calculated relative to untreated control wells.
They were then washed free of drug and incubated for a further 4 days, before being stained for cell survival with sulforhodamine B.

[5] = Plasma and A431 tumour pharmacokinetics of compounds 42 and 161
[6] = Chemical stability by HPLC; details: HPLC after 24 h at 37° C.
[7] = Plasma and tissue pharmacokinetics of prodrug 42 in H1975 tumour bearing mice; assay type: in vivo; details: female, NIH-III, mouse, 20 umol/kg, single iv dose of 42 at 20 μmol/kg
Procedure: Compound 42 was dosed at a nominal low dose of 20 μmol/kg to nine female NIH-III mice bearing H1975 tumour xenografts, as a solution in DMSO/5% dextrose (20:80) via intravenous injection. […] The frozen powders were then collected in pre-weighed microcentrifuge tubes (kept on dry ice). Four volumes of ice cold acetonitrile (containing 0.5 μM D6-161 as an internal standard) was added to each sample to extract the drug from the tissue powder. […] To 10 μL of plasma (collected in EDTA) was added 40 μL of ice cold acetonitrile (containing 0.5 μM D6-161 as an internal standard). The resulting solution was mixed and then centrifuged at 13,000 rpm for 5 min.

H1975 xenografts = experiment: In vivo efficacy in H1975 xenografts; set-up: species or system mice
[8] = single ip dose of 20 at 133 umol/kg

Chain of erbB4 (Q15303 26-1308): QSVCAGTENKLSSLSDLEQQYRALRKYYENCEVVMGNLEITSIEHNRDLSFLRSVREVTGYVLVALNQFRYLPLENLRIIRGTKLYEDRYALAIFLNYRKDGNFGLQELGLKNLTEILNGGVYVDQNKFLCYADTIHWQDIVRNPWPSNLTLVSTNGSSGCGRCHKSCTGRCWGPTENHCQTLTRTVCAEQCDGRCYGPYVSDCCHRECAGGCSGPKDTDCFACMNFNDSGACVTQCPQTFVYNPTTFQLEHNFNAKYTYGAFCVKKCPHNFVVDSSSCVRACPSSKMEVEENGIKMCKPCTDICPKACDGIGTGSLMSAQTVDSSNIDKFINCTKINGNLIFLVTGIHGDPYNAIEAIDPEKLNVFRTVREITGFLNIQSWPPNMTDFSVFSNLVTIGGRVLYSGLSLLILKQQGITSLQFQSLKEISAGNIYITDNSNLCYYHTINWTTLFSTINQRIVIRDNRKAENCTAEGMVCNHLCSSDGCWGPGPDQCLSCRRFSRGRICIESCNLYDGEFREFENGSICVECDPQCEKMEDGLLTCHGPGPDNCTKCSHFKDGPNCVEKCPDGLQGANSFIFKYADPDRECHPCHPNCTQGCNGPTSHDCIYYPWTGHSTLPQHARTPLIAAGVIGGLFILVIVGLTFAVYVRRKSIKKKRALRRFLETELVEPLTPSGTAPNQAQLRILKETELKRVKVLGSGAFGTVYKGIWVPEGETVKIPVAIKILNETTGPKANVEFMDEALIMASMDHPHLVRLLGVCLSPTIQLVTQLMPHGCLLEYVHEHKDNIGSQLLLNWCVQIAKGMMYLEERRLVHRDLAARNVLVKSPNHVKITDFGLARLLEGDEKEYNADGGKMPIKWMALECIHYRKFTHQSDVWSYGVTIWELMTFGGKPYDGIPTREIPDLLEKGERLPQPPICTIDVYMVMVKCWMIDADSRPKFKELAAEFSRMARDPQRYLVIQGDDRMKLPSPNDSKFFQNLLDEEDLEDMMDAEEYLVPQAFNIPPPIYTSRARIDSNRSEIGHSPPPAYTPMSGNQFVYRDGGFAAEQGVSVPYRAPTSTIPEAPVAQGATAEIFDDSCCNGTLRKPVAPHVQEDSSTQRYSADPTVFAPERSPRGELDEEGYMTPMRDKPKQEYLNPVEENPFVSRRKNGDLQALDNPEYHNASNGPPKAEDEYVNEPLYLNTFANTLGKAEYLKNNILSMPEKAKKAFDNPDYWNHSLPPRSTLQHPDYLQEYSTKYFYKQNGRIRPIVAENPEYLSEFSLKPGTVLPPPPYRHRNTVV
Chain of erbB2 (P04626 23-1255): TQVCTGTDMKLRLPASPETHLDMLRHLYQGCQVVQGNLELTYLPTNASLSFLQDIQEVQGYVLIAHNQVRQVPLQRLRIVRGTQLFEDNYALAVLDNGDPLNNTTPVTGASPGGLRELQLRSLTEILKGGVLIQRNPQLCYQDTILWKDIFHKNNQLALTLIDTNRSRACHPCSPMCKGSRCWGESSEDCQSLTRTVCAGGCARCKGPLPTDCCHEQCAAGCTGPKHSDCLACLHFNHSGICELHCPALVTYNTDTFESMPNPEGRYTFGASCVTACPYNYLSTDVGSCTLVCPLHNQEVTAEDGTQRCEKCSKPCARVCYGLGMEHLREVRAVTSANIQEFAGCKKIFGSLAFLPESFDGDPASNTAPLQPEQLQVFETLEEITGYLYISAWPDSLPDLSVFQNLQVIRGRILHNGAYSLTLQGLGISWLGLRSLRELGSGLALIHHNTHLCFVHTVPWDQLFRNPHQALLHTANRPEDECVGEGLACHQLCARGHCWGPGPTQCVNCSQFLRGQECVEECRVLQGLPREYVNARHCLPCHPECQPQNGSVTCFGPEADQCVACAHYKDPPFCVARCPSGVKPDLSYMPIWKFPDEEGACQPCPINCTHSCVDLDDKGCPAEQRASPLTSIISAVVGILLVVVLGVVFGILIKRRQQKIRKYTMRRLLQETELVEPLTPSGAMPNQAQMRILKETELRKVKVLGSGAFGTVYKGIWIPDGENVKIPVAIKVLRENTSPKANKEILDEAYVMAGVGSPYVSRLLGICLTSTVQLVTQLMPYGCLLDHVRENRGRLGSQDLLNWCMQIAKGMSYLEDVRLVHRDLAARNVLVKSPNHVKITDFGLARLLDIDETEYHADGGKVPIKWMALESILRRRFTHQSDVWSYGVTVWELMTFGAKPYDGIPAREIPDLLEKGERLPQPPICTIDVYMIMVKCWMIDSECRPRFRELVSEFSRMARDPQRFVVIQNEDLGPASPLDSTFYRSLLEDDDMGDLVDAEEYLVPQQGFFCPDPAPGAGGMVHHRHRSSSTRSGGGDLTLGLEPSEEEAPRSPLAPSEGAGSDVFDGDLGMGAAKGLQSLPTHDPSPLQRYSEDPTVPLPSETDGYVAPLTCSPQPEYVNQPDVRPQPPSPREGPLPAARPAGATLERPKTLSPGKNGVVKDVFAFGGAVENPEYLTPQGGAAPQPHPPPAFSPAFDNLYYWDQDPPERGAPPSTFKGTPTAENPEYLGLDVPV

Structure (SMILES): Cn1cnc([N+](=O)[O-])c1C[N+](C)(C)C/C=C/C(=O)Nc1ccc2ncnc(Nc3cccc(Br)c3)c2c1.[Br-] [Compound 20, (2E)-4-{[4-(3-bromoanilino)-6-quinazolinyl]amino}-N,N-dimethyl-N-[(1-methyl-4-nitro-1H-imidazol-5-yl)methyl]-4-oxo-2-buten-1-ammonium bromide]
- IC50 (erbB2): 112 nM
- IC50 (erbB4): 85 nM
- IC50 (erbB1 [1]): 0.47 nM
- erbB1 autophosphorylation, cells not washed free of drug (erbB1 [2]): not completely inhibited
- rate of hypoxic metabolism to inhibitor 11 (A431 cells): 200 pmol/hour/million cells
- rate of hypoxic metabolism to inhibitor 11 (SKOV3 cells): 500 pmol/hour/million cells
- SKBR3 Deact. (SKBR3 cells): 49 fold
- SKBR3 HCR (SKBR3 cells): 18.1 fold
- IC50 (SKBR3 cells; 24 hour exposure entirely oxic, read-out: Cellular Growth Inhibition IC50 SKBR3 Oxic): 3930 nM
- IC50 (SKBR3 cells; first 4 hours anoxic, read-out: Cellular Growth Inhibition IC50 SKBR3 Anoxic): 217 nM
- rate of release of inhibitor 11 [3]: 62 pmol/h
- stable tumour tissue concentration ([4]; prodrug 20, out to 72 h): ~30 µmol/kg
- tumour AUC0-72h ([4]; prodrug 20 at 133 umol/kg ip, A431 tumour): 2245 µmol·h/kg
- plasma AUC0-72h ([4]; prodrug 20 dosed at 133 umol/kg ip): 2016 µM·h
- AUC0-72 hr A431 Tumour, Compound 20 [4, 8]: 2245 µM·h
- AUC0-72 hr Plasma, Compound 20 [4, 8]: 2016 µM·h

Structure (SMILES): Cn1cnc([N+](=O)[O-])c1C[N+](C)(C)C/C=C/C(=O)Nc1cc2c(Nc3ccc(F)c(Br)c3)ncnc2cn1 [Compound 42, (2E)-4-{[4-(3-bromo-4-fluoroanilino)pyrido[3,4-d]pyrimidin-6-yl]amino}-N,N-dimethyl-N-[(1-methyl-4-nitro-1H-imidazol-5-yl)methyl]-4-oxo-2-buten-1-ammonium bromide]
- MTD (in vivo): 133 µmol/kg
- IC50 (H1975 cells; 24 hour exposure oxic, read-out: Cellular Growth Inhibition IC50 H1975 Oxic): 37200 nM
- IC50 (H1975 cells; first 4 hours anoxic, read-out: Cellular Growth Inhibition IC50 H1975 Anoxic): 4220 nM
- H1975 Deact. (H1975 cells): 30 fold
- H1975 HCR (H1975 cells): 10.8 fold
- stable tumour tissue concentration ([5]; prodrug 42, out to 72 h): ~30 µmol/kg
- tumour AUC0-72h ([5]; prodrug 42 at 100 umol/kg ip, A431 tumour): 2821 µmol·h/kg
- plasma AUC fold greater than for administration of inhibitor 161 ([5]; ~75% of q3dx4 MTD each): ~27 fold
- Stability PBS (percentage parent remaining) [6]: 77%
- Stability Water (percentage parent remaining) [6]: 98%
- Stability α-MEM + FCS (5%) (percentage parent remaining) [6]: 61%
- AUC(0-t) ([7]; H1975 tumour, read-out: AUC0-24 hr H1975 Tumour, 42): 123 µM·h
- AUC(0-t) ([7]; liver, read-out: AUC0-24 hr Liver, 42): 256 µM·h
- AUC(0-t) ([7]; plasma, read-out: AUC0-24 hr Plasma, 42): 24.7 µM·h
- AUC(0-t) ([7]; skin, read-out: AUC0-24 hr Skin, 42): 198 µM·h
- tumour growth inhibition (TGI) (H1975 xenografts; H1975 xenografts, equitoxic dose 133 (42) and 42.2 (161) μmol/kg/dose, q3dx4, IP): 188%
- tumour growth inhibition (TGI) (H1975 xenografts; H1975 xenografts, q3dx4 at respective MTD, IP): 229%
- tumour growth inhibition (TGI) (H1975 xenografts; large H1975 xenografts, 75 umol/kg/dose, q3dx8, IP): 154%
- tumour growth inhibition (TGI) (H1975 xenografts; large H1975 xenografts, 100 umol/kg/dose, q3dx8, IP): 213%
- tumour growth inhibition (TGI) (H1975 xenografts; large H1975 xenografts, 133 umol/kg/dose, q3dx8, IP): 275%

Reference: patent US9073916B2, “Prodrug forms of kinase inhibitors and their use in therapy” (AUCKLAND UNISERVICES LIMITED, priority 2009, dated 2015)
